Laboratory results reported in ChEMBL document CHEMBL1201862, “PubChem BioAssay data set” (2004).
Activity calls are given as the source filed them.

Experiments:
[1] = target: T1, Methionyl-tRNA synthetase, putative (Trypanosoma brucei brucei, UniProt Q38C91); assay type: functional, Trypanosoma brucei brucei strain 927/4 GUTat10.1
T1 sequence (Q38C91 whole entry): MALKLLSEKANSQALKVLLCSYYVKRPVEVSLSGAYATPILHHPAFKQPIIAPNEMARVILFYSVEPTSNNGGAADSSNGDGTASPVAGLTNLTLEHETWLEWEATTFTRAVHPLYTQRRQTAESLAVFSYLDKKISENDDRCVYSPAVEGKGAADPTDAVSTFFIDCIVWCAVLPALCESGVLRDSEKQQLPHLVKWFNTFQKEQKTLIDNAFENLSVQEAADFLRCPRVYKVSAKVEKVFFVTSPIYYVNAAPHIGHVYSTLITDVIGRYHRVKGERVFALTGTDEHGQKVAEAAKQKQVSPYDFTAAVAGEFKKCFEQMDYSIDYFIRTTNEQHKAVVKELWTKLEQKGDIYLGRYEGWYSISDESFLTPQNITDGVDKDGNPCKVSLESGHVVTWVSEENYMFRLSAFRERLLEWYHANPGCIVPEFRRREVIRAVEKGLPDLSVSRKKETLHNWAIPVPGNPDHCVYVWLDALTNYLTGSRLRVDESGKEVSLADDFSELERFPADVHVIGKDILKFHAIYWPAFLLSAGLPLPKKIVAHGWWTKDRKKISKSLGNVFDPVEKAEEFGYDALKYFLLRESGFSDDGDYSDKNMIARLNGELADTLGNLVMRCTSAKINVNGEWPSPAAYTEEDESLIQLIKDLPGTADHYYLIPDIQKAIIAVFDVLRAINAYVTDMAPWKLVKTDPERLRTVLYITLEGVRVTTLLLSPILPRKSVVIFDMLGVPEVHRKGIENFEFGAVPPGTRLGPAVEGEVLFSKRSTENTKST

[2] = Counterscreen for inhibitors of Trypanosoma brucei methionyl tRNA synthetase (MetRS): Luminescence-based cell-based high throughput dose response assay to identify compounds that are cytotoxic to Jurkat human T lymphocyte cells.; assay type: functional
[3] = Late stage counterscreen for inhibitors of Trypanosoma brucei methionyl tRNA synthetase (MetRS): Luminescence-based cell-based high throughput dose response assay to identify compounds that are cytotoxic to Jurkat human T lymphocyte cells.; assay type: functional
[4] = target: T1, Methionyl-tRNA synthetase, putative; assay type: functional, Trypanosoma brucei brucei strain 927/4 GUTat10.1; remark: listed apart in the source
[5] = target: T2, High affinity choline transporter 1 (Homo sapiens, UniProt Q9GZV3); assay: human choline transporter blockers, potency – cell-based, 5-point CRC, membrane potential dye, dose response (AID 504840); assay type: functional
T2 sequence (Q9GZV3 whole entry): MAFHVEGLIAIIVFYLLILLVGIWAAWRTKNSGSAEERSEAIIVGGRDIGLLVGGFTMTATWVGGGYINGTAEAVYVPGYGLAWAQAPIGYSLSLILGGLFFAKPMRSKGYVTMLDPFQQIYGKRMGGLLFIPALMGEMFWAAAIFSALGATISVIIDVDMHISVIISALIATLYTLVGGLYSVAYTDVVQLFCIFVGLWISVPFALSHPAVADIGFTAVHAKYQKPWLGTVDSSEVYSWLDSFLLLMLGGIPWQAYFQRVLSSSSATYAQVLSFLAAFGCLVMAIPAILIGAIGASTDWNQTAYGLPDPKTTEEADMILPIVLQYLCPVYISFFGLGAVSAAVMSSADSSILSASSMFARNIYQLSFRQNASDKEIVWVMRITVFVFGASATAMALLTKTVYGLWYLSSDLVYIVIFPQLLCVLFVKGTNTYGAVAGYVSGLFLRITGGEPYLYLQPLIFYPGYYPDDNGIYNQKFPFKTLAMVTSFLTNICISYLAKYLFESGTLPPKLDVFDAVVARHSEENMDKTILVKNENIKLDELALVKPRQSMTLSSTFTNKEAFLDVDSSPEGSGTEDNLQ

[6] = target: T3, RNA-binding protein pos-1 (Caenorhabditis elegans, UniProt G5EF15); assay: disruptors of C. elegans POS-1 RNA interaction – biochemical, fluorescence polarization, dose response (AID 1964);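 also: purified POS-1 fused to maltose binding protein made in E. coli; potency of compounds blocking POS-1 binding to fluorescent RNA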
T3 sequence (G5EF15 whole entry): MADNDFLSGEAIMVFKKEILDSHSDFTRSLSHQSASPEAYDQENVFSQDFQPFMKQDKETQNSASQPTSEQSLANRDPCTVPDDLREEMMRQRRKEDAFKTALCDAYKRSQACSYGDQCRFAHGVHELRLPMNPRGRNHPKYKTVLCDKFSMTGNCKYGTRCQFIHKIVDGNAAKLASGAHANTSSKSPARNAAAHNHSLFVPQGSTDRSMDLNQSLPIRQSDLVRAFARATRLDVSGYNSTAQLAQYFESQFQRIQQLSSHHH

[7] = target: T4, Zinc finger protein mex-5 (Caenorhabditis elegans, UniProt Q9XUB2); assay: potency of MEX-5 RNA-binding blockers – biochemical, C. elegans, fluorescence polarization, dose response (AID 1960)
T4 sequence (Q9XUB2 whole entry): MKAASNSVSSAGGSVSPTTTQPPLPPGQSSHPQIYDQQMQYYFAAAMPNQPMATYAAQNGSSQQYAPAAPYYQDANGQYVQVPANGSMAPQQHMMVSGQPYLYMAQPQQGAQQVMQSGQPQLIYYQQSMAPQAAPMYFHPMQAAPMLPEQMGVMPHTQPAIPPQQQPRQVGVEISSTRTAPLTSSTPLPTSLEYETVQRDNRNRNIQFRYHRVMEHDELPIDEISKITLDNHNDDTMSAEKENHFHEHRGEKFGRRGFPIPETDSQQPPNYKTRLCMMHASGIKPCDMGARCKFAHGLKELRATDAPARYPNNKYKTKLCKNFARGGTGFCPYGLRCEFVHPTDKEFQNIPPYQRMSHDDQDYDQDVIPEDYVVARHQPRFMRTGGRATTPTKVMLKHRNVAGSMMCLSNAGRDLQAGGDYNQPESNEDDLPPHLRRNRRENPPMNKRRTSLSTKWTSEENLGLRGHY

[8] = cells
[9] = ATP-based viability loss in HepG2 cells – cell-based, CellTiter-Glo luminescence, dry powder, set 3, cytotoxicity control, dose response (AID 720594); assay type: functional
[10] = ATP-based viability loss in HEK293T cells – cell-based, CellTiter-Glo luminescence, dry powder, set 2, cytotoxicity control, dose response (AID 720595); assay type: functional; settings: HEK293
[11] = ATP-based viability loss in HeLa cells – cell-based, CellTiter-Glo luminescence, dry powder, set 2, cytotoxicity control, dose response (AID 720593); assay type: functional
[12] = OVCAR-3 cell viability loss – plate reader, dry powder samples, PAX8 inhibitor project, dose response (AID 743044); assay type: functional, cell-based
[13] = inhibitors acting on PAX2 in cells – cell-based, plate reader, dry powder samples, selectivity assay for PAX8 inhibitor project, dose response (AID 743048); assay type: functional;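 also: HEK293 cells carrying a WT1 promoter luciferase reporter driven by expressed Pax2; potency is for inhibition of Pax2 driven reporter signal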
[14] = IGROV1 cell killing – plate reader, dry powder samples, PAX8 inhibitor project, dose response (AID 743043); assay type: functional, cell-based; settings: IGROV-1
[15] = OV-90 cell viability loss – plate reader, dry powder, SA8, PAX8 inhibitor project, dose response (AID 743149); assay type: functional, cell-based
[16] = PAX8-dependent cell viability loss – plate reader, dry powder, dose response (AID 743049); assay type: functional, cell-based
[17] = OVCAR4 cell viability loss – plate reader, dry powder, SA11, cytotoxicity control for PAX8 inhibitor project, dose response (AID 743150); assay type: functional, cell-based; settings: OVCAR-4
[18] = COV434 cell viability loss – plate reader, dry powder, SA7, cytotoxicity control for PAX8 inhibitor project, dose response (AID 743145); assay type: functional, cell-based
[19] = COV362 cell viability loss – plate reader, dry powder, SA12, cytotoxicity control for PAX8 inhibitor project, dose response (AID 743144); assay type: functional, cell-based
[20] = target: Paired box protein Pax-8 (Homo sapiens, UniProt Q06710); assay: PAX8 transcriptional activity inhibition in RMG-I – RMG-I cells, luciferase, cherry-pick, dose response (AID 687027); assay type: functional, cell-based;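 also: luciferase reporter driven by Pax8 target thyroperoxidase promoter measured by SteadyGlo luminescence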
Paired box protein Pax-8, sequence (Q06710 whole entry): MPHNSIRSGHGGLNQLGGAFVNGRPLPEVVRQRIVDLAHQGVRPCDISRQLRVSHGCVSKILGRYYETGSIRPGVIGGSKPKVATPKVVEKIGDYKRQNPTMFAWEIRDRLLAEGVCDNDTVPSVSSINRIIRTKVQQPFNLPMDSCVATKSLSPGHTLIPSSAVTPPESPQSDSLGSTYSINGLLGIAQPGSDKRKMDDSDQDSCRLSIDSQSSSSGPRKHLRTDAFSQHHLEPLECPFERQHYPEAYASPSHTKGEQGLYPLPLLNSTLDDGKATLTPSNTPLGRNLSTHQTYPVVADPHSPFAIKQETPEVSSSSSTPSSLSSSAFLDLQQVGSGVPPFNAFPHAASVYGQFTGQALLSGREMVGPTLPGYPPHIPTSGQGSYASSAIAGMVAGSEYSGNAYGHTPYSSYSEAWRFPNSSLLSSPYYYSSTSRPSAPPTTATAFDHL

[21] = A2780 cell killing – plate reader, dry powder samples, cytotoxicity control, dose response (AID 743046); assay type: functional, cell-based
[22] = target: NAD-dependent protein deacylase sirtuin-5, mitochondrial (Homo sapiens, UniProt Q9NXA8); assay: sirtuin-5 deacylation blockers, concentration series – biochemical, fluorescence imaging, cherry-pick, set 5, dose response (AID 720591);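 also: desuccinylation of succinyl peptide AMC substrate read as fluorescence after trypsin release; potency of inhibitors that lower fluorescence and may act on trypsin instead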
NAD-dependent protein deacylase sirtuin-5, mitochondrial, sequence (Q9NXA8 whole entry): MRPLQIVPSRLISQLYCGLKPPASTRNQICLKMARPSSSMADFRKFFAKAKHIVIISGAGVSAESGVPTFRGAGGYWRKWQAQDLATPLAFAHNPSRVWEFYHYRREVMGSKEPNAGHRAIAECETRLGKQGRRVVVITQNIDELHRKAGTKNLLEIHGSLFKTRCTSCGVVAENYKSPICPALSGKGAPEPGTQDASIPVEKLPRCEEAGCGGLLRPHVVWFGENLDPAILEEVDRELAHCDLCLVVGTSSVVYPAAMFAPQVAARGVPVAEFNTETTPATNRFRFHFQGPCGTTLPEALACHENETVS

SMILES: O=C(NCc1nc2ccccc2[nH]1)C1=C[C@H](C2CC2)C[C@H](OCc2ccc(CO)cc2)O1
- IC50 [1]: 8.95 µM (active)
- IC50 [2]: 83.3 µM (inactive)
- IC50 [3]: > 83.3 µM (inactive)
- IC50 [4]: 3.68 µM (active)

SMILES: CCn1c2ccccc2c(=O)c2ccccc21
- IC50 [5]: 15.1 µM (active)
- EC50 [6]: > 300 µM (not active)
- EC50 [7]: > 300 µM (not active)
- AC50 [8]: 1.59 µM (active)

SMILES: CC(C)C(=O)NC(c1ccco1)c1cc(Cl)c2cccnc2c1O (configuration not stated)
- AC50 [9]: > 52 µM (inactive)
- AC50 [10]: 8.31 µM (active)
- AC50 [11]: 28.3 µM (active)

SMILES: COc1cc(/C=C2\SC(=S)N(CCC(=O)N3CCCCC3)C2=O)cc(OC)c1OC
- AC50 [12]: 15.5 µM (active)
- AC50 [13]: 69.6 µM (active)
- AC50 [14]: 13.1 µM (active)
- AC50 [15]: 35.9 µM (active)
- AC50 [16]: 15 µM (active)
- AC50 [17]: 43 µM (active)
- AC50 [18]: 26.8 µM (active)
- AC50 [19]: 31.2 µM (active)
- AC50 [20]: 8.62 µM (active)
- AC50 [21]: 26.3 µM (active)

SMILES: COc1ccc(C)cc1NC(=O)CCN1CC(C)OC(C)C1 (configuration not stated)
- AC50 [22]: > 30 µM (inactive)
